Results as given in patent US6022901A, “Administration of resveratrol to prevent or treat restenosis following coronary intervention” (priority 1998, dated 2000).
Values joined by “and” are separate entries in the source; they are usually repeats but may differ in a detail not shown here. Equal entries are not always repeated.

What was measured:
[1] = Effect of Resveratrol on Body Weight of Female A/J Mice (diet, 6-week treatment); format: in vivo
Description: (§1) This experimental work assesses the bioavailability of resveratrol when administered orally to Female Mice Strain A, establishes the relationship betveen oral administration of resveratrol and the plasma concentration of the female mice, assesses the method of analysis for mouse plasma and establishes the detection limit of resveratrol in animal plasma. The mice were received from the Biological Testing Branch, National Cancer Institute, at 4-6 weeks of age, each having a body weight of approximately 16 g.
(§2) After a quarantine period of one week, seven (7) groups each consisting of 10 mice were given resveratrol mixed with Teklad 4% Mouse/Rat chow ad libitum for a 6-week treatment period. As indicated in the table which follows, the concentration of resveratrol ranged from 125 mg/kg of diet to 3000 mg/kg of diet, with one group, as the control group, receiving only the mouse chow.
(§3) Parameters monitored during the course of the study included sided-cage observations twice daily and body weight. Blood samples were taken at the end of the treatment period of 6 weeks and kept frozen at -20° C.±5 until the time of analysis. All animals were sacrificed by asphyxiation.

[2] = Resveratrol concentration in mouse plasma after oral administration in diet (HPLC); format: in vivo, mouse (Female Mice Strain A); conditions: for concentration at 1008 h: plasma, po, 6 weeks
Description: as §1
After a quarantine period of one week, seven (7) groups each consisting of 10 mice were given resveratrol mixed with Teklad 4% Mouse/Rat chow ad libitum for a 6-week treatment period.
as §3
Plasma resveratrol concentration was determined by a liquid-liquid extraction method and reverse phase HPLC at Pharmascience Inc., Bio-analytical Division, Quebec, Canada, as follows. After addition of internal standard and buffer to plasma samples, ethyl acetate was then added. The extracted organic phase was transferred to a clean tube and dried with a nitrogen evaporator. The residue was reconstituted with the mobile phase and then injected to HPLC with UV at 310 nm.

[3] = Clinical signs, cage observations twice daily in mice fed resveratrol; format: in vivo, mouse (Female Mice Strain A); conditions: any dose groups tested, 125-3000 mg/kg diet, 6 weeks
Description: as §1, §2, §3

[4] = anti-initiation activity; cited from earlier work
[5] = anti-initiation activity; cited from earlier work; remark: listed apart in the source
[6] = system: phase II drug-metabolizing enzymes; conditions: anti-initiation activity; cited from earlier work
[7] = antipromotion activity; cited from earlier work
cyclooxygenase = conditions: antipromotion activity; cited from earlier work
hydroperoxidase = conditions: antipromotion activity; cited from earlier work
[8] = system: human promyelocytic leukemia cell; conditions: cited from earlier work

In the case of Oc1ccc(C=Cc2cc(O)cc(O)c2)cc1 [resveratrol, 3,5,4'-trihydroxy stilbene], the mean body weight ([1]; 125 ppm, day 5, N=10) is reported as 16.4 Grams, the mean body weight ([1]; 125 ppm, day 8, N=10) is reported as 16.6 Grams and the mean body weight ([1]; 125 ppm, day 12, N=10) is reported as 17.3 Grams. It also gave a mean body weight ([1]; 125 ppm, day 15, N=10) of 18.0 Grams, a mean body weight ([1]; 125 ppm, day 19, N=10) of 18.4 Grams and a mean body weight ([1]; 125 ppm, day 22, N=10) of 18.7 Grams. It also gave a mean body weight ([1]; 125 ppm, day 26, N=10) of 19.0 Grams, a mean body weight ([1]; 125 ppm, day 29, N=10) of 19.0 Grams and a mean body weight ([1]; 125 ppm, day 33, N=10) of 19.4 Grams. For the same compound, the mean body weight ([1]; 125 ppm, day 36, N=10) was 19.3 Grams, the mean body weight ([1]; 125 ppm, day 40, N=10) was 19.2 Grams and the mean body weight ([1]; 125 ppm, day 42, N=10) was 19.7 Grams. It also gave a mean body weight ([1]; 250 ppm, day 5, N=10) of 16.2 Grams, a mean body weight ([1]; 250 ppm, day 8, N=10) of 16.8 Grams and a mean body weight ([1]; 250 ppm, day 12, N=10) of 17.7 Grams. It also gave a mean body weight ([1]; 250 ppm, day 15, N=10) of 18.4 Grams, a mean body weight ([1]; 250 ppm, day 19, N=10) of 18.9 Grams and a mean body weight ([1]; 250 ppm, day 22, N=10) of 19.0 Grams. It also gave a mean body weight ([1]; 250 ppm, day 26, N=10) of 19.3 Grams, a mean body weight ([1]; 250 ppm, day 29, N=10) of 19.4 Grams and a mean body weight ([1]; 250 ppm, day 33, N=10) of 19.7 Grams. The mean body weight ([1]; 250 ppm, day 36, N=10) was 19.6 Grams, the mean body weight ([1]; 250 ppm, day 40, N=10) was 19.9 Grams and the mean body weight ([1]; 250 ppm, day 42, N=10) was 19.9 Grams. For the same compound, the mean body weight ([1]; 500 ppm, day 5, N=10) was 16.6 Grams, the mean body weight ([1]; 500 ppm, day 8, N=10) was 17.5 Grams and the mean body weight ([1]; 500 ppm, day 12, N=10) was 17.8 Grams. The mean body weight ([1]; 500 ppm, day 15, N=10) was 18.3 Grams, the mean body weight ([1]; 500 ppm, day 19, N=10) was 18.7 Grams and the mean body weight ([1]; 500 ppm, day 22, N=10) was 19.2 Grams. It also gave a mean body weight ([1]; 500 ppm, day 26, N=10) of 19.4 Grams, a mean body weight ([1]; 500 ppm, day 29, N=10) of 19.8 Grams and a mean body weight ([1]; 500 ppm, day 33, N=10) of 19.8 Grams. It also gave a mean body weight ([1]; 500 ppm, day 36, N=10) of 20.1 Grams, a mean body weight ([1]; 500 ppm, day 40, N=10) of 20.0 Grams and a mean body weight ([1]; 500 ppm, day 42, N=10) of 20.2 Grams. For the same compound, the mean body weight ([1]; 1000 ppm, day 5, N=10) was 16.1 Grams, the mean body weight ([1]; 1000 ppm, day 8, N=10) was 16.9 Grams and the mean body weight ([1]; 1000 ppm, day 12, N=10) was 17.4 Grams. It also gave a mean body weight ([1]; 1000 ppm, day 15, N=10) of 18.2 Grams, a mean body weight ([1]; 1000 ppm, day 19, N=10) of 18.1 Grams and a mean body weight ([1]; 1000 ppm, day 22, N=10) of 18.8 Grams. It also gave a mean body weight ([1]; 1000 ppm, day 26, N=10) of 19.0 Grams, a mean body weight ([1]; 1000 ppm, day 29, N=10) of 19.3 Grams and a mean body weight ([1]; 1000 ppm, day 33, N=10) of 19.5 Grams. For the same compound, the mean body weight ([1]; 1000 ppm, day 36, N=10) was 19.8 Grams, the mean body weight ([1]; 1000 ppm, day 40, N=10) was 19.5 Grams and the mean body weight ([1]; 1000 ppm, day 42, N=10) was 19.6 Grams. The mean body weight ([1]; 2000 ppm, day 5, N=10) was 16.3 Grams, the individual body weight ([1]; 2000 ppm, day 5, animals 51-60) was 17.8 Grams and 15.7 Grams and 16.1 Grams and 17.0 Grams and 13.7 Grams and the mean body weight ([1]; 2000 ppm, day 8, N=10) was 16.6 Grams. For the same compound, the individual body weight ([1]; 2000 ppm, day 8, animals 51-60) was 19.1 Grams and 15.8 Grams and 14.8 Grams and 16.5 Grams and 13.6 Grams, the mean body weight ([1]; 2000 ppm, day 12, N=10) was 17.7 Grams and the individual body weight ([1]; 2000 ppm, day 12, animals 51-60) was 19.5 Grams and 16.9 Grams and 17.0 Grams and 19.2 Grams and 18.1 Grams and 15.3 Grams. The mean body weight ([1]; 2000 ppm, day 15, N=10) was 17.7 Grams, the individual body weight ([1]; 2000 ppm, day 15, animals 51-60) was 19.6 Grams and 16.9 Grams and 16.7 Grams and 19.0 Grams and 17.7 Grams and 14.5 Grams and the mean body weight ([1]; 2000 ppm, day 19, N=10) was 18.8 Grams. For the same compound, the individual body weight ([1]; 2000 ppm, day 19, animals 51-60) was 20.1 Grams and 18.4 Grams and 19.5 Grams and 15.7 Grams, the mean body weight ([1]; 2000 ppm, day 22, N=10) was 19.1 Grams and the individual body weight ([1]; 2000 ppm, day 22, animals 51-60) was 20.3 Grams and 18.8 Grams and 18.4 Grams and 20.9 Grams and 20.0 Grams and 16.3 Grams. The mean body weight ([1]; 2000 ppm, day 26, N=10) was 19.2 Grams, the individual body weight ([1]; 2000 ppm, day 26, animals 51-60) was 20.2 Grams and 19.0 Grams and 18.7 Grams and 20.7 Grams and 19.9 Grams and 16.0 Grams and the mean body weight ([1]; 2000 ppm, day 29, N=10) was 19.5 Grams. The individual body weight ([1]; 2000 ppm, day 29, animals 51-60) was 20.7 Grams and 19.5 Grams and 18.8 Grams and 21.4 Grams and 20.0 Grams and 16.1 Grams, the mean body weight ([1]; 2000 ppm, day 33, N=10) was 19.8 Grams and the individual body weight ([1]; 2000 ppm, day 33, animals 51-60) was 21.0 Grams and 19.8 Grams and 19.5 Grams and 21.2 Grams and 20.7 Grams and 16.6 Grams. The mean body weight ([1]; 2000 ppm, day 36, N=10) was 19.6 Grams, the individual body weight ([1]; 2000 ppm, day 36, animals 51-60) was 21.3 Grams and 18.4 Grams and 18.5 Grams and 20.4 Grams and 20.0 Grams and 16.7 Grams and the mean body weight ([1]; 2000 ppm, day 40, N=10) was 19.7 Grams. The individual body weight ([1]; 2000 ppm, day 40, animals 51-60) was 20.3 Grams and 19.9 Grams and 18.9 Grams and 21.0 Grams and 20.9 Grams and 17.2 Grams, the mean body weight ([1]; 2000 ppm, day 42, N=10) was 20.3 Grams and the individual body weight ([1]; 2000 ppm, day 42, animals 51-60) was 19.5 Grams and 21.7 Grams and 19.2 Grams and 21.9 Grams and 21.3 Grams and 18.0 Grams. The mean body weight ([1]; group 7, 300 (ppm), day 5, N=10) was 16.3 Grams, the individual body weight ([1]; group 7, 300 (ppm), day 5, animals 61-70) was 16.0 Grams and 14.9 Grams and 15.2 Grams and the mean body weight ([1]; group 7, 300 (ppm), day 8, N=10) was 17.1 Grams. For the same compound, the individual body weight ([1]; group 7, 300 (ppm), day 8, animals 61-70) was 16.8 Grams and 16.4 Grams and 16.1 Grams, the mean body weight ([1]; group 7, 300 (ppm), day 12, N=10) was 17.6 Grams and the individual body weight ([1]; group 7, 300 (ppm), day 12, animals 61-70) was 17.6 Grams and 17.5 Grams and 17.4 Grams. The mean body weight ([1]; group 7, 300 (ppm), day 15, N=10) was 17.1 Grams, the individual body weight ([1]; group 7, 300 (ppm), day 15, animals 61-70) was 16.9 Grams and 17.2 Grams and the mean body weight ([1]; group 7, 300 (ppm), day 19, N=10) was 18.7 Grams. For the same compound, the individual body weight ([1]; group 7, 300 (ppm), day 19, animals 61-70) was 18.8 Grams and 18.2 Grams, the mean body weight ([1]; group 7, 300 (ppm), day 22, N=10) was 19.1 Grams and the individual body weight ([1]; group 7, 300 (ppm), day 22, animals 61-70) was 18.5 Grams and 18.6 Grams. For the same compound, the mean body weight ([1]; group 7, 300 (ppm), day 26, N=10) was 19.1 Grams, the individual body weight ([1]; group 7, 300 (ppm), day 26, animals 61-70) was 18.6 Grams and 18.5 Grams and the mean body weight ([1]; group 7, 300 (ppm), day 29, N=10) was 18.9 Grams. The individual body weight ([1]; group 7, 300 (ppm), day 29, animals 61-70) was 18.8 Grams and 18.3 Grams, the mean body weight ([1]; group 7, 300 (ppm), day 33, N=10) was 19.5 Grams and the individual body weight ([1]; group 7, 300 (ppm), day 33, animals 61-70) was 18.7 Grams and 18.8 Grams. For the same compound, the mean body weight ([1]; group 7, 300 (ppm), day 36, N=10) was 19.9 Grams, the individual body weight ([1]; group 7, 300 (ppm), day 36, animals 61-70) was 19.4 Grams and 18.6 Grams and the mean body weight ([1]; group 7, 300 (ppm), day 40, N=10) was 19.6 Grams. For the same compound, the individual body weight ([1]; group 7, 300 (ppm), day 40, animals 61-70) was 19.3 Grams and 19.1 Grams, the mean body weight ([1]; group 7, 300 (ppm), day 42, N=10) was 20.1 Grams and the individual body weight ([1]; group 7, 300 (ppm), day 42, animals 61-70) was 19.1 Grams and 19.5 Grams. For the same compound, the oral absorption ([2]; mixed with chow) was “easily absorbed by the oral route”, the “relationship between plasma resveratrol levels and amount administered” value ([2]; oral in diet, FIG. 1) was “linear relationship” and the concentration at 1008 h ([2]; 125 mg/kg diet, n=5) was 10.8 ng/mL. For the same compound, the concentration at 1008 h ([2]; 250 mg/kg diet, n=4) was 87.9 ng/mL, the concentration at 1008 h ([2]; 500 mg/kg diet, n=5) was 56.8 ng/mL and the concentration at 1008 h ([2]; 1000 mg/kg diet, n=5) was 99 ng/mL. For the same compound, the concentration at 1008 h ([2]; 2000 mg/kg diet, n=5) was 178 ng/mL, the concentration at 1008 h ([2]; 3000 mg/kg diet, n=5) was 447 ng/mL and the compound-related clinical signs [3] was “no compound-related clinical signs”. For the same compound, the antioxidant activity [4] was “acted as an antioxidant”, the antimutagen activity [5] was “antimutagen” and the “induction of phase II drug-metabolizing enzymes” value [6] was “induced phase II drug-metabolizing enzymes”. The anti-inflammatory effects [7] was “mediated anti-inflammatory effects”, the inhibition of cyclooxygenase (cyclooxygenase) was “inhibited cyclooxygenase” and the inhibition of hydroperoxidase (hydroperoxidase) was “inhibited cyclooxygenase and hydroperoxidase”. For the same compound, the “human promyelocytic leukemia cell differentiation” value [8] was “induced human promyelocytic leukemia cell differentiation”.
